Drawing on ChEMBL document CHEMBL1151258, “New cytotoxic cembranes from the sea pen Gyrophyllum sibogae” (2004), this text covers EC50 for 1 molecule.

Holding throughout (type): functional
Details in all cases: read-out: ED50 (the source's name)

Assay [1] deals with DU-145. The experiment in a line: Cytotoxicity against human DU145 cells.
The nature of assay [2]: Cytotoxicity against human IGROV cells.
The subject of assay [3] is HT-29. Kind of assay: Cytotoxicity against human HT-29 cells.
For assay [4], the system named is K562. Kind of assay: Cytotoxicity against human K562 cells.

Take `C/C1=C/C=C(\C(C)C)C(=O)[C@@H](O)[C@H](C)CCC(=O)[C@H](CO)CCC1`: the EC50 worked out at 82 nM in assay [1], 90.3 nM in assay [2], 14.5 nM in assay [3] and 62.7 nM in assay [4].
